The values that follow are results of earlier work, collected in patent US12144787B2, “Method of treating patients with a mutation in cyclin-dependent kinase-like 5 (CDKL5)” (ZOGENIX INTERNATIONAL LIMITED, priority 2019, dated 2024).

Molecules are shown by their SMILES.

Data set [1] concerns refractory epilepsy with self-induced seizures. Conditions: children with refractory epilepsy; dose 0.5 to 1 mg/kg/day.
For data set [2], the system named is compulsive respiratory stereotypies. The conditions noted are these: open label, 8 children; subset of patients.
The test system of data set [3] is self-induced photosensitive seizures. Conditions: four cases; patients staring into bright lights or the sun.
The subject of data set [4] is pattern sensitivity-induced seizures. The conditions noted are these: one child, seizures resistant to anticonvulsive treatment.

Regarding `CCNC(C)Cc1cccc(C(F)(F)F)c1` (racemic) [fenfluramine, (RS)—N-ethyl-1-[3-(trifluoromethyl)phenyl]propan-2-amine], the “number of seizures experienced by the patients” value in data set [1] is recorded as “reduction in the number of seizures”. The “effect on compulsive respiratory stereotypies” value in data set [2] was “some beneficial effects”. For the same molecule, in data set [3], the “response of self-induced photosensitive seizures to treatment” value is given as “responded to treatment”. The “effect on self-induced seizures” value in data set [4] is on record as “successfully terminated these self-induced seizures”.
